Molecular target: T1, iPLA2β (Mus musculus, UniProt P97819)
T1 construct: from tissue; host or cells: whole animal: female NOD mice (wild-type Pla2g6), urine collected for PGE2 metabolites
T1 sequence (P97819 1-807): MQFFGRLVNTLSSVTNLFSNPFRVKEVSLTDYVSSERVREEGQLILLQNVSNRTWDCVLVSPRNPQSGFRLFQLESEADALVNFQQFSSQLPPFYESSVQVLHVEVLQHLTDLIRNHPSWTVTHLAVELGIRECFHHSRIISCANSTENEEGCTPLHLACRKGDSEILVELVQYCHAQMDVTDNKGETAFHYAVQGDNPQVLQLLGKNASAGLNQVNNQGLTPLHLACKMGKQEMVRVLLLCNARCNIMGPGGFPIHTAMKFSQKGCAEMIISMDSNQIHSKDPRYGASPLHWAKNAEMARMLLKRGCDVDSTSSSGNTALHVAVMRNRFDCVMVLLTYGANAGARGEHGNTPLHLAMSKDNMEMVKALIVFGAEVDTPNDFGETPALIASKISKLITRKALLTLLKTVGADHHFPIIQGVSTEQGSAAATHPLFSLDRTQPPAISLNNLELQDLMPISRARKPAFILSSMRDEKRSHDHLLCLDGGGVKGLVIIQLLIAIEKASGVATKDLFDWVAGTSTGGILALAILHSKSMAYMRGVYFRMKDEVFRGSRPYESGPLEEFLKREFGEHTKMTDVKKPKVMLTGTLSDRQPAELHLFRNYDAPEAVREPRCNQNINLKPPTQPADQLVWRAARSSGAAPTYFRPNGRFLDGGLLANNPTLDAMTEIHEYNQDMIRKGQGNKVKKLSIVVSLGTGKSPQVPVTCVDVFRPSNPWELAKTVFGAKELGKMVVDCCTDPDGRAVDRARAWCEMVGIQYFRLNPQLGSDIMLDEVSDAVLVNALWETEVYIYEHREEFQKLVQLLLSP
Experiment: Urinary PGE2 metabolites (PGEM), reflecting in vivo inhibition of iPLA2β activity
Settings: 8-week regimen group; 18 weeks of age
Protocol: FIGS. 1A-1M show the effects of temporal FKGK18 regimen on T1D incidence and islet phenotype, wherein female NOD mice were administered FKGK18 (20 mg/kg, 3 × weekly) or vehicle (PBS-T) starting at 4 or 8 weeks of age. FIGS. 1A and 1B show diabetes incidence; blood glucose was monitored weekly in the 4-week (FIG. 1A; n = 17 and 15 for PBS-T and FKGK18 groups, respectively) and 8-week (FIG. 1B; n = 15 each in the PBS-T and FKGK18 groups) regimen groups for up to 30 weeks. Two consecutive readings of ≥ 275 mg/dL were recorded as onset of T1D (^†P < 0.05). FIGS. 1C-1F show glucose tolerance test (GTT) results, wherein overnight fasted mice were administered glucose (2 g/kg, i.p.), glucose levels in blood from tail vein were monitored over a 2-hour period, and AUC were generated. […] FIGS. 1H and 1I show β Cell mass (PBS-T, n = 15; FKGK18, n = 14) (FIG. 1H) and circulating insulin (n = 15 in each group) (FIG. 1I) were determined at sacrifice (PBS-T, 14-30 weeks of age; FKGK18, 16-36 weeks of age). FIGS. 1J and 1K show islet infiltration; paraffin sections (10 µm) of pancreas were prepared and stained with H&E. Percent infiltration for each islet was calculated as the value of noninfiltrated area subtracted from total islet area (% infiltrate = 100 × [(total area - noninfiltrated area)/(total area)]) using ImageJ software. […]

For O=C(CCCCc1ccc2ccccc2c1)C(F)(F)F [FKGK18], the “urinary PGE2 metabolites (PGEM) relative to vehicle-treated mice” value was “reduced”.

From US20230263826A1, “Compositions and Methods for Treatment and Prevention of Type 1 Diabetes” (The UAB Research Foundation, priority 2021, published 2023)
